Experimental data from patent publication US20250001107A1, “BREATH-POWERED NASAL DEVICES FOR TREATMENT OF TRAUMATIC BRAIN INJURY (TBI), INCLUDING CONCUSSION, AND METHODS” (Oragenics, Inc., priority 2021, published 2025).

Key:
[1] = preclinical studies of neuroprotective effects; format: in vivo
[2] = system: Animal models of concussion; assay: animal models of concussion, behavioral pathology; format: in vivo
[3] = blood-brain barrier crossing
lipophilicity = format: physicochemical

## CC(=O)[C@@H]1CCC2C3CCC4=CC(=O)CC[C@H]4C3CC[C@]21C (single isomer, unassigned) [ent-19-norprogesterone, ent-19-norpregn-4-ene-3,20-dione]
[1]
  neuroprotective effects compared to related neurosteroids: equivalent, if not superior, neuroprotective effects compared to related neurosteroids
[2]
  behavioral pathology associated with brain injury symptoms: reduces the behavioral pathology associated with brain injury symptoms such as memory impairment, anxiety, and motor/sensory performance
[3]
  crossing of the blood-brain barrier: can easily cross the blood-brain barrier
lipophilicity
  lipophilicity: lipophilic
